Measured values as given in PubChem BioAssay AID274 (DTP/NCI, 2004).
Where “and” joins values, the source holds several entries; their conditions need not be identical. Equal entries are not always repeated. Toxic doses and inconclusive results are not listed.

System: BDF1 mice, Lewis lung carcinoma iv, survival T/C
Assay: NCI In Vivo Anticancer Drug Screen. Data for tumor model Lewis Lung Carcinoma (intravenous) in B6D2F1 (BDF1) mice
Settings: endpoint: median survival time, schedule: Q01DX009 (ip), higher = longer survival
Method: The antitumor activity of compounds was measured in mice bearing transplantable tumors. Survival or tumor size were measured and the results are expressed as the measurement made in the treated group (T) divided by the measurement made in the vehicle treated control group (C). The tumor model used in this assay is Lewis Lung Carcinoma (intravenous) in B6D2F1 (BDF1) mice

[1] = dose: 25.0 mg/kg/injection, vehicle: suspension in saline
[2] = dose: 50.0 mg/kg/injection, vehicle: suspension in saline
[3] = dose: 12.5 mg/kg/injection, vehicle: Klucel (hydroxypropylcellulose) (HPC)
[4] = dose: 25.0 mg/kg/injection, vehicle: Klucel (hydroxypropylcellulose) (HPC)
[5] = dose: 50.0 mg/kg/injection, vehicle: Klucel (hydroxypropylcellulose) (HPC)
[6] = dose: 100.0 mg/kg/injection, vehicle: Klucel (hydroxypropylcellulose) (HPC)
[7] = dose: 200.0 mg/kg/injection, vehicle: Klucel (hydroxypropylcellulose) (HPC)
[8] = dose: 400.0 mg/kg/injection, vehicle: Klucel (hydroxypropylcellulose) (HPC)
[9] = dose: 3.12 mg/kg/injection, vehicle: saline
[10] = dose: 25.0 mg/kg/injection, vehicle: saline
[11] = dose: 50.0 mg/kg/injection, vehicle: saline
[12] = dose: 25.0 mg/kg/injection, vehicle: saline with Tween-80
[13] = dose: 50.0 mg/kg/injection, vehicle: saline with Tween-80
[14] = dose: 100.0 mg/kg/injection, vehicle: saline with Tween-80
[15] = dose: 200.0 mg/kg/injection, vehicle: saline with Tween-80
[16] = dose: 12.5 mg/kg/injection, vehicle: saline with Tween-80
[17] = dose: 400.0 mg/kg/injection, vehicle: saline with Tween-80
[18] = dose: 6.25 mg/kg/injection, vehicle: saline with Tween-80

CCOC(=O)c1c[nH]c2oc(/C=N/N3CC(CN4CCOCC4)OC3=O)cc2c1=O (stereo not drawn)
T/C (dose: 6.25 mg/kg/injection, vehicle: suspension in saline): 108 % of control | T/C (dose: 12.5 mg/kg/injection, vehicle: suspension in saline): 105 % of control | T/C [1]: 104 % of control | T/C [2]: 114 % of control | T/C (dose: 100.0 mg/kg/injection, vehicle: suspension in saline): 106 % of control

Clc1ccc(C2SC=Cc3ccccc32)cc1 (stereo not drawn)
T/C [3]: 94 % of control | T/C [4]: 105 % of control | T/C [5]: 108 % of control | T/C [6]: 108 % of control | T/C [7]: 115 % of control | T/C [8]: 108 % of control

NC(Cc1ccc(N(CCCl)CCCl)cc1)C(=O)O (stereo not drawn)
T/C (dose: 0.5 mg/kg/injection, vehicle: Klucel (hydroxypropylcellulose) (HPC)): 94 % of control | T/C (dose: 1.0 mg/kg/injection, vehicle: Klucel (hydroxypropylcellulose) (HPC)): 97 % of control | T/C (dose: 2.0 mg/kg/injection, vehicle: Klucel (hydroxypropylcellulose) (HPC)): 122 % of control

NC(=O)c1ncn2c(=O)n(CCCl)nnc12
T/C [9]: 103 % of control | T/C (dose: 6.25 mg/kg/injection, vehicle: saline): 120 % of control | T/C (dose: 12.5 mg/kg/injection, vehicle: saline): 159 % of control | T/C [10]: 298 % of control

CCC(C)n1ncc2c(N(C)C)ncnc21 (stereo not drawn)
T/C [10]: 102 % of control | T/C [11]: 98 % of control

CNc1cccnc1/C=N/NC(N)=S
T/C (dose: 12.0 mg/kg/injection, vehicle: saline with Tween-80): 100 % of control | T/C [12]: 103 % of control | T/C [13]: 102 % of control | T/C [14]: 115 % of control

CC(=O)OCC1OC(OC(C)=O)C(NC(=O)N(CCCl)N=O)C(OC(C)=O)C1OC(C)=O (stereo not drawn)
T/C (dose: 0.75 mg/kg/injection, vehicle: Klucel (hydroxypropylcellulose) (HPC)): 105 % of control | T/C (dose: 1.5 mg/kg/injection, vehicle: Klucel (hydroxypropylcellulose) (HPC)): 105 % of control | T/C (dose: 3.0 mg/kg/injection, vehicle: Klucel (hydroxypropylcellulose) (HPC)): 110 % of control | T/C (dose: 6.0 mg/kg/injection, vehicle: Klucel (hydroxypropylcellulose) (HPC)): 110 % of control

O=C(O)CC[S-].[Ag+]
T/C [13]: 99 % of control | T/C [14]: 102 % of control | T/C [15]: 91 % of control

Nc1nc2n[nH]nc2c(=O)[nH]1
T/C [1]: 93 % of control | T/C [2]: 98 % of control

O=CN(SSN(C=O)C1CCCCC1)C1CCCCC1
T/C [16]: 114 % of control | T/C [12]: 108 % of control | T/C [13]: 99 % of control | T/C [14]: 95 % of control | T/C [15]: 101 % of control | T/C [17]: 87 % of control

Oc1ccc2ccccc2c1N=Nc1ccc(F)cc1
T/C [14]: 106 % of control | T/C [15]: 91 % of control | T/C [17]: 106 % of control

COC(=O)c1[nH]c(=O)[nH]c(=O)c1F
T/C [18]: 106 % of control | T/C [16]: 115 % of control | T/C [12]: 98 % of control

CC[C@](C)(O)C(=O)O[C@H]1C(=O)O[C@@H]2C[C@H]3C(C)=CC(=O)[C@@H](O)[C@]3(C)[C@H]3[C@@]4(O)OC[C@]32[C@@H]1[C@@H](C)[C@H]4O
T/C (dose: 0.12 mg/kg/injection, vehicle: steriod suspending solution): 92 % of control | T/C (dose: 0.25 mg/kg/injection, vehicle: steriod suspending solution): 106 % of control | T/C (dose: 0.5 mg/kg/injection, vehicle: steriod suspending solution): 99 % of control

CN(C)C(=O)c1cccc(COc2ccc(N3C(N)=NC(N)=NC3(C)C)cc2Cl)c1
T/C (dose: 0.09 mg/kg/injection, vehicle: saline): 95 % of control | T/C (dose: 0.19 mg/kg/injection, vehicle: saline): 108 % of control | T/C (dose: 0.39 mg/kg/injection, vehicle: saline): 95 % of control | T/C (dose: 0.78 mg/kg/injection, vehicle: saline): 101 % of control | T/C (dose: 1.56 mg/kg/injection, vehicle: saline): 92 % of control | T/C [9]: 118 % of control

COc1ccc2nc3cc(Cl)ccc3c(NCCNCCNCCNc3c4ccc(Cl)cc4nc4ccc(OC)cc34)c2c1
T/C (dose: 3.12 mg/kg/injection, vehicle: Klucel (hydroxypropylcellulose) (HPC)): 99 % of control | T/C (dose: 6.25 mg/kg/injection, vehicle: Klucel (hydroxypropylcellulose) (HPC)): 103 % of control | T/C [3]: 89 % of control | T/C [4]: 97 % of control

Nc1ccn(C2OC(COC(=O)C34CC5CC(CC(C5)C3)C4)C(O)C2O)c(=O)n1 (stereo not drawn)
T/C [16]: 116 % of control

Cc1cn(C2CC(O)C(CO)O2)c(=O)[nH]c1=O (stereo not drawn)
T/C [16]: 89 % of control | T/C [13]: 88 % of control | T/C [14]: 94 % of control | T/C [15]: 98 % of control

CSCCC(N)C(=O)O (stereo not drawn)
T/C (dose: 18.75 mg/kg/injection, vehicle: saline with Tween-80): 101 % of control | T/C (dose: 37.5 mg/kg/injection, vehicle: saline with Tween-80): 93 % of control | T/C (dose: 40.0 mg/kg/injection, vehicle: saline with Tween-80): 100 % of control | T/C (dose: 75.0 mg/kg/injection, vehicle: saline with Tween-80): 101 % of control | T/C (dose: 80.0 mg/kg/injection, vehicle: saline with Tween-80): 97 % of control | T/C (dose: 150.0 mg/kg/injection, vehicle: saline with Tween-80): 91 % of control | T/C (dose: 160.0 mg/kg/injection, vehicle: saline with Tween-80): 95 % of control | T/C (dose: 320.0 mg/kg/injection, vehicle: saline with Tween-80): 100 % of control

c1cn[nH]c1
T/C [10]: 121 % of control | T/C [11]: 110 % of control

Cc1ccc(NCC2(/N=C/c3ccccc3)OC(CO)C(O)C2O)cc1 (stereo not drawn)
T/C [3]: 103 % of control | T/C [4]: 95 % of control | T/C [5]: 100 % of control | T/C [6]: 99 % of control | T/C [7]: 96 % of control | T/C [8]: 86 % of control

Cc1ccc[c]([Hg][Cl])c1N=Nc1ccccc1
T/C (dose: 0.78 mg/kg/injection, vehicle: saline with Tween-80): 100 % of control | T/C (dose: 1.56 mg/kg/injection, vehicle: saline with Tween-80): 105 % of control | T/C (dose: 3.12 mg/kg/injection, vehicle: saline with Tween-80): 90 % of control | T/C [18]: 115 % of control | T/C [16]: 94 % of control

CCC1CN2C(=N1)c1ccccc1-c1cc(Cl)ccc12 (stereo not drawn)
T/C (dose: 3.13 mg/kg/injection, vehicle: saline with Tween-80): 104 % of control and 118 % of control | T/C [18]: 109 % of control and 90 % of control | T/C [16]: 100 % of control | T/C [12]: 94 % of control and 107 % of control | T/C [13]: 102 % of control and 122 % of control

O=[n+]1c2c(n([O-])c3ccccc31)-c1cccc3cccc-2c13
T/C [12]: 100 % of control | T/C [13]: 104 % of control | T/C [14]: 105 % of control

CN1N=C(N)c2cn(C3OC(COP(=O)(O)O)C(O)C3O)c3ncnc1c23 (stereo not drawn)
T/C (dose: 0.39 mg/kg/injection, vehicle: water): 100 % of control | T/C (dose: 0.78 mg/kg/injection, vehicle: water): 92 % of control | T/C (dose: 1.56 mg/kg/injection, vehicle: water): 86 % of control | T/C (dose: 3.12 mg/kg/injection, vehicle: water): 93 % of control | T/C (dose: 6.25 mg/kg/injection, vehicle: water): 99 % of control | T/C (dose: 12.5 mg/kg/injection, vehicle: water): 99 % of control

C/C(=N\NC(N)=O)c1cccc(/C(C)=N/NC(N)=O)n1
T/C [18]: 104 % of control | T/C [16]: 100 % of control | T/C [12]: 98 % of control | T/C [13]: 103 % of control | T/C [14]: 106 % of control
